ChEMBL document CHEMBL5385851, “Natural quinazolinones: From a treasure house to promising anticancer leads” (Eur J Med Chem, 2023)
≈ marks a conversion by molar mass, not a printed value.

How the values were obtained:
MCF7 [1] = assay: Cytotoxicity against human MCF7 assessed as reduction in cell viability incubated for 24 hrs by MTT assay; format: functional, cell-based; details: MCF7, 24 h
A549 [2] = assay: Cytotoxicity against human A549 cells assessed as inhibition of cell growth measured after 72 hrs by MTT assay; format: functional, cell-based; details: A549, 72 h
SK-MEL-28 [3] = assay: Cytotoxicity against human SK-MEL-28 cells assessed as reduction in cell growth; format: functional, cell-based
[4] = Antiproliferative activity against human U373 cells assessed as reduction in cell viability; format: functional, cell-based; details: U373 MG
Hs 683 [5] = assay: Cytotoxicity against human Hs 683 cells assessed as reduction in cell viability by MTT assay; format: functional, cell-based
PC-3 = assay: Cytotoxicity against human PC-3 cells assessed as inhibition of cell growth; format: functional, cell-based
SNU1 = assay: Cytotoxicity against human SNU1 cells assessed as inhibition of cell growth measured after 72 hrs by cell titer glo assay; format: functional, cell-based; details: SNU1, 72 h
AGS = assay: Cytotoxicity against human AGS cells assessed as reduction in cell viability incubated for 48 hrs by MTT assay; format: functional, cell-based
KB = assay: Cytotoxicity against human KB cells assessed as cell growth inhibition; format: functional, cell-based
HCT-116 [6] = assay: Cytotoxicity against human HCT-116 cells assessed as reduction in cell viability incubated for 24 hrs by MTT assay; format: functional, cell-based; details: HCT-116, 24 h
P388 [7] = assay: Cytotoxicity against mouse P388 cells assessed as reduction in cell growth; format: functional; details: read-out: ED50 (the source's name)
HepG2 [8] = assay: Cytotoxicity against human HepG2 cells assessed as cell growth inhibition measured after 48 hrs by MTT assay; format: functional, cell-based; details: HepG2, 48 h
A-375 [9] = assay: Cytotoxicity against human A-375 cells assessed as reduction in cell growth incubated for 48 hrs by MTT assay; format: functional, cell-based; details: A-375, 48 h
A549 [10] = assay: Antiproliferative activity against human A549 cells assessed as cell growth inhibition measured after 72 hrs by MTT assay; format: functional, cell-based; details: A549, 72 h
HCT-116 [11] = assay: Cytotoxicity against human HCT-116 cells assessed as reduction in cell growth incubated for 48 hrs by MTT assay; format: functional, cell-based; details: HCT-116, 48 h
SW 1116 = assay: Antiproliferative activity against human […] cells assessed as reduction in cell viability incubated for 24 hrs by MTT assay; format: functional, cell-based; details: SW 1116, 24 h
K562 [12] = assay: Cytotoxicity against human K562 cells assessed as reduction in cell viability incubated for 24 hrs by MTT assay; format: functional, cell-based; details: K562, 24 h
HCT-116 [13] = assay: Antiproliferative activity against human HCT-116 cells assessed as inhibition of cell growth incubated for 48 hrs by MTT based colorimetric assay; format: functional; details: HCT-116, 48 h
A-375 [14] = assay: Antiproliferative activity against human A-375 cells assessed as inhibition of cell growth incubated for 48 hrs by MTT based colorimetric method; format: functional; details: A-375, 48 h
HepG2 [15] = assay: Antiproliferative activity against human HepG2 cells assessed as inhibition of cell growth incubated for 48 hrs by MTT based colorimetric assay; format: functional; details: HepG2, 48 h
A549 [16] = assay: Antiproliferative activity against human A549 cells assessed as cell growth inhibition incubated for 48 hrs by MTT assay; format: functional, cell-based; details: A549, 48 h
P388 [17] = assay: Cytotoxicity against mouse P388 cells assessed as inhibition of cell growth; format: functional, cell-based
K562 [18] = assay: Cytotoxicity against human K562 cells assessed as cell growth inhibition after 48 hrs by MTT assay; format: functional, cell-based; details: K562, 48 h
HepG2 [19] = assay: Antiproliferative activity against human HepG2 cells assessed as reduction in cell viability incubated for 72 hrs by CCK-8 assay; format: functional, cell-based; details: HepG2, 72 h
MCF7 [20] = assay: Antiproliferative activity against human MCF7 cells assessed as reduction in cell viability incubated for 48 hrs by MTT assay; format: functional, cell-based; details: MCF7, 48 h
[21] = Antiproliferative activity against human U373 cells assessed as inhibition of cell growth measured after 72 hrs by CTG assay; format: functional, cell-based; details: U373 MG
A549 [22] = assay: Antiproliferative activity against human A549 cells assessed as cell growth inhibition; format: functional, cell-based
SK-MEL-28 [23] = assay: Cytotoxicity against human SK-MEL-28 cells assessed as inhibition of cell growth incubated for 72 hrs by MTT assay; format: functional, cell-based; details: SK-MEL-28, 72 h
[24] = molecular target: Tryptophan 2,3-dioxygenase (Homo sapiens, UniProt P48775); assay: Inhibition of TDO (unknown origin) expressed in HEK293 cells; format: cell-based
Chain of Tryptophan 2,3-dioxygenase (P48775 whole entry): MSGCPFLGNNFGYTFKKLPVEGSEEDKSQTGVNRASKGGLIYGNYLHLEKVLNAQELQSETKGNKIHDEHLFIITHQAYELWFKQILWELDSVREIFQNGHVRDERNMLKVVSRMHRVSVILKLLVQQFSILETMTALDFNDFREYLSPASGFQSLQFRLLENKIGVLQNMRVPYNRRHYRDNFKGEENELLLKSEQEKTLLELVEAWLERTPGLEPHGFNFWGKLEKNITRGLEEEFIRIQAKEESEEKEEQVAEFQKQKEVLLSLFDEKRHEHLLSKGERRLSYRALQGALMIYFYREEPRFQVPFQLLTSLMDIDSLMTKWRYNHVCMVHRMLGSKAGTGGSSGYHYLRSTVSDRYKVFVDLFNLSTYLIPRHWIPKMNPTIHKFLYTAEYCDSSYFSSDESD

[25] = molecular target: Indoleamine 2,3-dioxygenase 1 (Homo sapiens, UniProt P14902); assay: Inhibition of IDO1 in human HeLa cells; format: cell-based
Chain of Indoleamine 2,3-dioxygenase 1 (P14902 whole entry): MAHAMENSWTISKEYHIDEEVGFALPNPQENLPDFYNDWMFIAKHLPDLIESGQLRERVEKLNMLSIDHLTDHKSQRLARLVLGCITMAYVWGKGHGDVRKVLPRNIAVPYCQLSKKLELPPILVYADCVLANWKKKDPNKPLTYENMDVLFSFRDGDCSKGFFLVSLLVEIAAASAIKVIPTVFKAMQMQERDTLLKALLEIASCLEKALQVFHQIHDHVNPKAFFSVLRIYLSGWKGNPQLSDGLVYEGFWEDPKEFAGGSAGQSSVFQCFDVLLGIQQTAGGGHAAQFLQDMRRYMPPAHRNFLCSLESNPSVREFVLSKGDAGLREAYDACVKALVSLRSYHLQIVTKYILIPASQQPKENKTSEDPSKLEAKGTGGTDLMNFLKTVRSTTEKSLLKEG

SK-MEL-28 [26] = assay: Cytotoxicity against human SK-MEL-28 cells assessed as reduction in cell viability measured after 24 hrs by MTT assay; format: functional, cell-based; details: SK-MEL-28, 24 h
A549 [27] = assay: Cytotoxicity against human A549 cells assessed as reduction in cell growth incubated for 5 days by MTT assay; format: functional, cell-based; details: A549, 120 h
HepG2 [28] = assay: Cytotoxicity against human HepG2 cells assessed as reduction in cell viability incubated for 24 hrs by MTT based colorimetric assay; format: functional; details: HepG2, 24 h
Hs 683 [29] = assay: Cytotoxicity against human Hs 683 cells; format: functional, cell-based
HCT-116 [30] = assay: Cytotoxicity against human HCT-116 cells assessed as cell growth inhibition incubated for 24 hrs by MTT based colorimetric assay; format: functional; details: HCT-116, 24 h
[31] = Cytotoxicity against human U373 cells assessed as reduction in cell viability after 24 hrs by MTT assay; format: functional, cell-based; details: U373 MG
A549 [32] = assay: Cytotoxicity against human A549 cells assessed as reduction in cell growth; format: functional, cell-based
MCF7 [33] = assay: Cytotoxicity against human MCF7 cells assessed as reduction in cell viability by SRB assay; format: functional, cell-based

Question: For O=C1N[C@H]2c3[nH]c4ccccc4c3C[C@@H]1n1c2nc2ccccc2c1=O, which IC50 (MCF7 [1]) is on record?
Answer: The IC50 was 43 µM.

Question: What about the IC50 (A549 [2]) of the same compound?
Answer: Its IC50 is 39 µM.

Question: What about the IC50 (SK-MEL-28 [3]) of the same compound?
Answer: Its IC50 is 73 µM.

Question: And the IC50 [4]?
Answer: Its IC50 is 50 µM.

Question: What about the IC50 (Hs 683 [5]) of the same compound?
Answer: Its IC50 is 50 µM.

Question: For COc1ccc2c(=O)n3c(nc2c1)-c1[nH]c2ccccc2c1CC3, which IC50 (PC-3) is on record?
Answer: Its IC50 is 19.4 µM.

Question: Which IC50 (SNU1) does the source give for O=C(C[C@H]1NCCC[C@@H]1O)Cn1cnc2ccccc2c1=O here?
Answer: Its IC50 is 0.05 µg/mL (≈ 0.166 µM).

Question: What about the IC50 (AGS) of the same compound?
Answer: Its IC50 is 0.17 µg/mL (≈ 0.564 µM).

Question: With C=CC(C)(C)[C@@]12C[C@H]3c4nc5ccccc5c(=O)n4[C@H](C)C(=O)N3[C@@H]1N(C(C)=O)c1ccccc12 as the compound, how does the IC50 (KB) read?
Answer: The IC50 was 107 µM.

Question: With O=Cc1c(-c2nc3ccccc3c(=O)[nH]2)[nH]c2ccccc12 as the compound, how does the IC50 (HCT-116 [6]) read?
Answer: Its IC50 is 12.1 µM.

Question: Which EC50 (P388 [7]) does the source give for CO[C@@]1(C)NC(=O)[C@@H](C[C@]2(O)c3ccccc3N3C(=O)[C@H](C)N[C@@H]32)n2c1nc1ccccc1c2=O here?
Answer: The EC50 was 13.8 µg/mL (≈ 29 µM).

Question: Which results are given for CC(C)[C@@H]1NC(=O)[C@@H](C[C@]2(O)c3ccccc3N3C(=O)[C@H](C)N[C@H]32)n2c1nc1ccccc1c2=O?
Answer: IC50 (HepG2 [8]): 53 µM; IC50 (A-375 [9]): 169 µM; IC50 (A549 [10]): 0.54 µM; IC50 (HCT-116 [11]): 123 µM

Question: Which results are given for C[C@H]1C(=O)N2c3ccccc3[C@@]3(O)C[C@@H](n4cnc5ccccc5c4=O)C(=O)N1[C@@H]23?
Answer: IC50 (SW 1116): 0.034 µM; IC50 (K562 [12]): 0.035 µM

Question: For CC(=O)O[C@H](c1nc2ccccc2c(=O)n1[C@@H]1C[C@@]2(OC1=O)c1ccccc1N1C(=O)C(C)(C)N(O)[C@H]12)C(C)C, which IC50 (HCT-116 [13]) is on record?
Answer: The IC50 was 114 µM.

Question: What about the IC50 (A-375 [14]) of the same compound?
Answer: Its IC50 is 108 µM.

Question: What about the IC50 (HepG2 [15]) of the same compound?
Answer: The IC50 was 58 µM.

Question: And the IC50 (A549 [16])?
Answer: Its IC50 is 0.54 µM.

Question: For O=C(c1cnc2ccccc2c1)c1nc2ccccc2c(=O)[nH]1, which IC50 (P388 [17]) is on record?
Answer: Its IC50 is 2.3 µg/mL (≈ 7.63 µM).

Question: Which IC50 (PC-3) does the source give for COc1ccc2c(=O)n3ccc4c5ccccc5[nH]c4c3nc2c1 here?
Answer: The IC50 was 22.1 µM.

Question: With C[C@@]12NC(=O)[C@@H](CC13c1ccccc1N1C(=O)CN[C@@H]13)n1c2nc2ccccc2c1=O (stereo partly drawn) as the compound, how does the IC50 (K562 [18]) read?
Answer: The IC50 was 50 µM.

Question: For CC1(C)C(=O)N2c3ccccc3[C@@]3(C[C@@H](n4cnc5ccccc5c4=O)C(=O)O3)[C@@H]2N1C=O, which IC50 (HepG2 [19]) is on record?
Answer: Its IC50 is 235 µM.

Question: And the IC50 (MCF7 [20])?
Answer: Its IC50 is 91 µM.

Question: And the IC50 [21]?
Answer: Its IC50 is > 100 µM.

Question: What about the IC50 (A549 [22]) of the same compound?
Answer: The IC50 was > 100 µM.

Question: What about the IC50 (SK-MEL-28 [23]) of the same compound?
Answer: Its IC50 is > 100 µM.

Question: Which IC50 [24] does the source give for CN(C)CCc1ccc2nc3n(c(=O)c2c1)C1C=CC(F)=CC1C3=O (stereo not drawn) here?
Answer: The IC50 was 0.06 µM.

Question: What about the IC50 [25] of the same compound?
Answer: Its IC50 is 0.02 µM.

Question: For C[C@@H]1N[C@H]2N(C1=O)c1ccccc1[C@@]2(O)C[C@@H]1C(=O)N[C@H](C)c2nc3ccccc3c(=O)n21, which EC50 (P388 [7]) is on record?
Answer: The EC50 was 16 µg/mL (≈ 35.9 µM).

Question: Which IC50 (KB) does the source give for C=CC(C)(C)[C@@]12C[C@@]3(O)c4nc5ccccc5c(=O)n4[C@H](C)C(=O)N3[C@@H]1N(C(C)=O)c1ccccc12 here?
Answer: Its IC50 is 61.4 µM.

Question: For CC(C)[C@H]1NC(=O)[C@@H](C[C@]2(O)c3ccccc3N3C(=O)[C@H](C)N[C@H]32)n2c1nc1ccccc1c2=O, which IC50 (SK-MEL-28 [26]) is on record?
Answer: The IC50 was > 100 µM.

Question: And the IC50 (A549 [27])?
Answer: The IC50 was > 100 µM.

Question: What about the IC50 (HepG2 [28]) of the same compound?
Answer: Its IC50 is 115 µM.

Question: And the IC50 (Hs 683 [29])?
Answer: The IC50 was > 100 µM.

Question: What about the IC50 (HCT-116 [30]) of the same compound?
Answer: Its IC50 is 277 µM.

Question: What about the IC50 [31] of the same compound?
Answer: Its IC50 is > 100 µM.

Question: And the IC50 (A549 [32])?
Answer: The IC50 was 0.54 µM.

Question: What about the IC50 (MCF7 [33]) of the same compound?
Answer: Its IC50 is > 100 µM.

Question: For CN1CCN(CCc2ccc3nc4n(c(=O)c3c2)C2C=CC(F)=CC2C4=O)CC1 (stereo not drawn), which IC50 [24] is on record?
Answer: Its IC50 is 0.09 µM.

Question: And the IC50 [25]?
Answer: The IC50 was 0.02 µM.
